According to patent US12503444B2, “Compound containing benzene ring and application thereof” (WUHAN LL SCIENCE AND TECHNOLOGY DEVELOPMENT CO., LTD., priority 2019, dated 2025):
Like-named read-outs stand apart in the source and are kept apart here.

Experiments:
[1] = In vitro metabolic stability, liver microsome incubation (guinea pig); type: in vitro ADME; conditions: guinea pig, liver microsomes; 1 mg/mL liver microsome protein, 37° C.; read-out: T1/2 in guinea pig liver microsome min
Procedure: (§1) The in vitro metabolic stability of the compounds disclosed herein was determined through incubation of liver microsomes of various species. A proper amount of test compound was added into a liver microsome reaction system (1 mg/mL liver microsome protein, 25 U/mL glucose-6 phosphate dehydrogenase, 1 mM NADP, 6 mM D-glucose 6-phosphate and 5 mM MgCl2), and then the mixture was incubated in a water bath kettle at 37° C. to start the reaction. At each time point, 100 μL of the reaction system was added into a centrifuge tube containing 400 μL of internal standard working solution (containing a 200 ng/mL solution of dexamethasone, diclofenac, tolbutamide and labetalol in acetonitrile) precooled at 0° C. so as to stop the reaction, and the mixture was then centrifuged at 10,000 g for 10 min at 4° C. The supernatant was collected for LC-MS assay so as to obtain the values of in vitro metabolic half-life of the test compounds in liver microsomes of various species.

[2] = molecular target: T1, hP2X4 (human purinergic P2X receptor subtype 4) (Homo sapiens, UniProt Q99571); assay: FLIPR assay of intracellular calcium increase induced by activation of hP2X4 expressed in HEK293 cells (agonist BZ-ATP 2.5 μM); type: cell-based; conditions: HEK293 cells stably expressing hP2X4, FLIPR, read-out: P2X4 IC50
T1 sequence (Q99571 1-404 isoform Q99571-2): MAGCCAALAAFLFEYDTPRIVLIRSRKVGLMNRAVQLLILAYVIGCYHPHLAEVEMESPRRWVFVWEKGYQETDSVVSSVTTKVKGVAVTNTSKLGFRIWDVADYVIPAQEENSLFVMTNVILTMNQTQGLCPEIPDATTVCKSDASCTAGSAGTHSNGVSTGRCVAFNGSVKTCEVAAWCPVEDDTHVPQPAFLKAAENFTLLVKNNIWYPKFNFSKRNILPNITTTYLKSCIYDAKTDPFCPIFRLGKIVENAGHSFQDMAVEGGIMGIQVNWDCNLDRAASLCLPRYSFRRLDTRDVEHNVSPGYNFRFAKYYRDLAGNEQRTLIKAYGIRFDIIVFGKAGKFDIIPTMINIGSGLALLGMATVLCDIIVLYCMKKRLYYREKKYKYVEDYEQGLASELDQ
How it was run: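 Inhibition of the calcium signal was measured by FLIPR after a 2.5 μM final BZ-ATP challenge, with readings every second over 2 min. Stable hP2X4-HEK293 cells were dye-loaded (Calcium 6, 37° C, 1.5 h) and equilibrated with test compound for 30 min at room temperature beforehand.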

[3] = In vitro cytotoxicity assay in HepG2 cells, CCK-8 method; conditions: human
Procedure: In vitro cytotoxicity assay for the compounds disclosed herein was performed in HepG2 cells using the CCK-8 method. HepG2 cells (Beina Bio) in the logarithmic growth phase were collected, the concentration of cell suspension was adjusted, and then the cells were plated on a 96-well cell culture plate at 50,000 cells/well. The cells were then incubated overnight in a cell incubator (5%/humidity, 37° C.), and after 80-90% cell confluence was achieved, test compounds or vehicle (DMSO) at various concentration gradients were added after medium change. The resulting mixture was incubated in the cell incubator (5% humidity, 37° C.) for 48 h. After the treatment, the medium in the plate was discarded. The plate was washed twice with PBS, added with CCK-8 working solution (Beyotime) at 100 μL per well, and then incubated at 37° C. for 1.5 h away from the light. Absorbance at OD450 nm was measured for each well on a microplate reader, and CC50 value of each compound was analyzed and calculated.

[4] = In vitro metabolic stability, liver microsome incubation (rat); type: in vitro ADME; conditions: rat, 1 mg/mL liver microsome protein, 37° C., read-out: T1/2 in rat liver microsome min
Procedure: as §1

[5] = In vitro metabolic stability, liver microsome incubation (human); type: in vitro ADME; conditions: human, liver microsomes, 1 mg/mL liver microsome protein, 37° C., read-out: T1/2 in human liver microsome min
Procedure: as §1

[6] = system: Male Dunkin Hartley guinea pigs; assay: Citric acid only cough model in guinea pigs; type: in vivo; conditions: guinea pig, 17.5% citric acid
Procedure: Male Dunkin Hartley guinea pigs (300-350 g) were placed in an animal atomization box, and then the door of the atomization box was closed while the ultrasonic atomizer (Guangdong Yuehua) was turned on. 17.5% citric acid gas was introduced into the atomization box at a maximum atomization rate (about 2 mL/min) for 20 s, and coughs of the animals within 10 min were continuously observed from the time of the start of atomization. During the 10-min observation, coughs of the animals needed to be counted manually, and the number of coughs were judged according to cough postures of the guinea pigs, such as abdominal twitching, mouth opening, and head inclining downward abruptly. The number of coughs during the first 5 min and that during 10 min were recorded, and the cough latency of the guinea pigs, namely the time from the initiation of citric acid induction to the appearance of the 1st cough, was also recorded.
Cough inhibition rate Vs vehicle represents the percentage of reduction
[formula] in the number of coughs in the administration group compared to the vehicle group upon citric acid challenge; Cough inhibition rate Vs baseline represents the percentage of reduction
[formula] in the number of coughs in the administration group before and after administration.

[7] = 60 mg/kg group, before administration (baseline)

NS(=O)(=O)c1cc(NC(=O)Cc2ccccc2Cl)cc2n[nH]cc12 [Compound 2, 2-(2-chlorophenyl)-N-(4-sulfamoyl-2H-indazol-6-yl)acetamide]
half-life [1]: 3.54 h | IC50 ([2]; numeric values): 5.4 nM | CC50 at 48 h [3]: > 200000 nM | half-life ([4]; liver microsomes): 0.809 h | half-life [5]: 2.57 h

CCCn1cc2c(S(N)(=O)=O)cc(NC(=O)Cc3ccccc3Cl)cc2n1 [Compound 5-A, 2-(2-chlorophenyl)-N-(2-propyl-4-sulfonylamino-2H-indazol-6-yl)acetamide]
half-life [1]: 0.0978 h | IC50 ([2]; numeric values): 5.24 nM | CC50 at 48 h [3]: > 200000 nM | half-life ([4]; liver microsomes): 2.37 h | half-life [5]: 5.96 h

CC(C)CCn1cc2c(S(N)(=O)=O)cc(NC(=O)Cc3ccccc3Cl)cc2n1 [Compound 8-A, 2-(2-chlorophenyl)-N-(2-isopentyl-4-sulfamoyl-2H-indazol-6-yl)acetamide]
IC50 ([2]; numeric values): 13.9 nM | CC50 at 48 h [3]: > 200000 nM | half-life [5]: 0.584 h

NS(=O)(=O)c1cc(NC(=O)Cc2ccccc2Cl)cc2nn(CC(F)F)cc12 [Compound 12-A, 2-(2-chlorophenyl)-N-(2-(2,2-difluoroethyl)-4-sulfamoyl-2H-indazol-6-yl)acetamide]
IC50 ([2]; numeric values): 31 nM | CC50 at 48 h [3]: > 200000 nM | half-life ([5]; symbol NA): > 106 h

CC(C)OCCn1cc2c(S(N)(=O)=O)cc(NC(=O)Cc3ccccc3Cl)cc2n1 [Compound 26-A, 2-(2-chlorophenyl)-N-(2-(2-isopropoxyethyl)-4-sulfamoyl-2H-indazol-6-yl)acetamide]
IC50 ([2]; numeric values): 6.1 nM | CC50 at 48 h [3]: > 200000 nM | half-life [5]: 2.09 h

COc1ccc(Cn2cc3c(S(N)(=O)=O)cc(NC(=O)Cc4ccccc4Cl)cc3n2)cc1 [Compound 35-A, 2-(2-chlorophenyl)-N-(2-(4-methoxybenzyl)-4-sulfamoyl-2H-indazol-6-yl)acetamide]
IC50 ([2]; class symbols): 10 to 50 nM | CC50 at 48 h [3]: > 200000 nM | half-life [5]: 6.21 h

COc1ccc(Cn2ncc3c(S(N)(=O)=O)cc(NC(=O)Cc4ccccc4Cl)cc32)cc1 [Compound 35-B, 2-(2-chlorophenyl)-N-(1-(4-methoxybenzyl)-4-sulfamoyl-1H-indazol-6-yl)acetamide]
IC50 ([2]; class symbols): 10 to 50 nM | CC50 at 48 h [3]: > 200000 nM | half-life [5]: 4.66 h

COc1cccc(Cn2cc3c(S(N)(=O)=O)cc(NC(=O)Cc4ccccc4Cl)cc3n2)c1 [Compound 36-A, 2-(2-chlorophenyl)-N-(2-(3-methoxybenzyl)-4-sulfamoyl-2H-indazol-6-yl)acetamide]
IC50 ([2]; class symbols): 10 to 50 nM | half-life [5]: 1.44 h

COc1cccc(Cn2ncc3c(S(N)(=O)=O)cc(NC(=O)Cc4ccccc4Cl)cc32)c1 [Compound 36-B, 2-(2-chlorophenyl)-N-(1-(3-methoxybenzyl)-4-sulfamoyl-1H-indazol-6-yl)acetamide]
IC50 ([2]; class symbols): 10 to 50 nM | half-life [5]: 0.962 h

COc1ccccc1Cn1cc2c(S(N)(=O)=O)cc(NC(=O)Cc3ccccc3Cl)cc2n1 [Compound 37-A, 2-(2-chlorophenyl)-N-(2-(2-methoxybenzyl)-4-sulfamoyl-2H-indazol-6-yl)acetamide]
IC50 ([2]; class symbols): 10 to 50 nM | half-life [5]: 1.32 h

NS(=O)(=O)c1cc(NC(=O)Cc2ccccc2Cl)cc2c1cnn2-c1ccc(F)cc1 [Compound 44, 2-(2-chlorophenyl)-N-(1-(4-fluorophenyl)-4-sulfamoyl-1H-indazol-6-yl)acetamide]
half-life [1]: 1.2 h | IC50 ([2]; numeric values): 36.8 nM | half-life ([4]; microsomes): 1.53 h | half-life [5]: 5.08 h

NS(=O)(=O)c1cc(NC(=O)Cc2ccccc2Cl)cc2cn(CC3CC3)nc12 [Compound 47, 2-(2-chlorophenyl)-N-(2-(cyclopropylmethyl)-7-sulfamoyl-2H-indazol-5-yl)acetamide]
IC50 ([2]; numeric values): 17 nM | CC50 at 48 h [3]: > 200000 nM | half-life [5]: 13.1 h

NS(=O)(=O)c1cc(NC(=O)Cc2ccccc2Cl)cc2nc(-c3ccccc3)[nH]c12 [Compound 53, 2-(2-chlorophenyl)-N-(2-phenyl-7-sulfamoyl-1H-benzo[d]imidazol-5-yl)acetamide]
half-life [1]: 0.154 h | IC50 ([2]; class symbols): 200 to 5000 nM | half-life ([4]; liver microsomes): 0.753 h | half-life [5]: 3.79 h

Nc1ccc(Cn2cc3c(S(N)(=O)=O)cc(NC(=O)Cc4ccccc4Cl)cc3n2)cn1 [Compound 101, N-(2-((6-aminopyridin-3-yl)methyl)-4-sulfamoyl-2H-indazol-6-yl)-2-(2-chlorophenyl)acetamide]
IC50 ([2]; class symbols): 10 to 50 nM | half-life [5]: 1.86 h

Nc1ccc(Cn2ncc3c(S(N)(=O)=O)cc(NC(=O)Cc4ccccc4Cl)cc32)cn1 [Compound 101A, N-(1-((6-aminopyridin-3-yl)methyl)-4-sulfamoyl-1H-indazol-6-yl)-2-(2-chlorophenyl)acetamide]
IC50 ([2]; class symbols): 10 to 50 nM | half-life [5]: 1.19 h

NS(=O)(=O)c1cc(NC(=O)Cc2ccccc2Cl)cc2nn(CC3CCOC3)cc12 (centres unmarked) [Compound 110, 2-(2-chlorophenyl)-N-(4-sulfamoyl-2-((tetrahydrofuran-3-yl)methyl)-2H-indazol-6-yl)acetamide]
IC50 ([2]; class symbols): 50 to 200 nM | half-life ([4]; liver microsomes): 1.15 h | half-life [5]: 7.18 h

NS(=O)(=O)c1cc(NC(=O)Cc2ccccc2Cl)cc2c1cnn2CC1CCOC1 (centres unmarked) [Compound 110A, 2-(2-chlorophenyl)-N-(4-sulfamoyl-1-((tetrahydrofuran-3-yl)methyl)-1H-indazol-6-yl)acetamide]
IC50 ([2]; class symbols): 200 to 5000 nM | half-life ([4]; liver microsomes): 0.335 h | half-life [5]: 0.882 h

NS(=O)(=O)c1cc(NC(=O)Cc2ccccc2Cl)cc2nn(CC3CCCO3)cc12 (centres unmarked) [Compound 120, 2-(2-chlorophenyl)-N-(4-sulfamoyl-2-((tetrahydrofuran-2-yl)methyl)-2H-indazol-6-yl)acetamide]
IC50 ([2]; class symbols): 50 to 200 nM | half-life ([4]; liver microsomes): 0.226 h | half-life [5]: 1.06 h

NS(=O)(=O)c1cc(NC(=O)Cc2ccccc2Cl)cc2c1cnn2CC1CCCO1 (centres unmarked) [Compound 120A, 2-(2-chlorophenyl)-N-(4-sulfamoyl-1-((tetrahydrofuran-2-yl)methyl)-1H-indazol-6-yl)acetamide]
IC50 ([2]; class symbols): 50 to 200 nM | half-life ([4]; liver microsomes): 0.137 h | half-life [5]: 0.371 h

CCC(F)(F)n1cc2c(S(N)(=O)=O)cc(NC(=O)Cc3ccccc3Cl)cc2n1 [Compound 133, 2-(2-chlorophenyl)-N-(2-(1,1-difluoropropyl)-4-sulfamoyl-2H-indazol-6-yl)acetamide]
IC50 ([2]; class symbols): 10 to 50 nM | CC50 at 48 h [3]: > 100000 nM | half-life ([4]; liver microsomes): 2.26 h | half-life [5]: 25 h

C=CC(F)(F)n1cc2c(S(N)(=O)=O)cc(NC(=O)Cc3ccccc3Cl)cc2n1 [Compound 134, 2-(2-chlorophenyl)-N-(2-(1,1-difluoroallyl)-4-sulfamoyl-2H-indazol-6-yl)acetamide]
IC50 ([2]; class symbols): 10 to 50 nM | half-life ([4]; liver microsomes): 3.22 h | half-life [5]: 13.7 h

NS(=O)(=O)c1cc(NC(=O)Cc2ccccc2Cl)cc2nn(CC3CCOCC3)cc12 [Compound 141, 2-(2-chlorophenyl)-N-(4-sulfamoyl-2-((tetrahydro-2H-pyran-4-yl)methyl)-2H-indazol-6-yl)acetamide]
IC50 ([2]; class symbols): 50 to 200 nM | half-life ([4]; liver microsomes): 0.226 h | half-life [5]: 1.07 h

COc1ccc2c(c1)[C@]13CCCC[C@@H]1[C@H](C2)N(C)CC3 [Dextromethorphan, dextromethorphan, reference compound]
Cough inhibition rate Vs vehicle (%) ([6]; 60 mg/kg): 33.95% | Cough latency [6, 7]: 73.43 s | Mean number of coughs [6, 7]: 18.57 | Cough latency ([6]; 60 mg/kg, after administration): 154.29 s | Mean number of coughs ([6]; 60 mg/kg, after administration): 12.71 | Cough inhibition rate Vs baseline (%) ([6]; 60 mg/kg, before vs after administration): 31.54%
